# Columns and labels:
# [1] = tested on: voltage-sensitive calcium channel; conditions: cited from earlier work
# [2] = tested on: NMDA receptor; conditions: cited from earlier work
# [3] = tested on: Cultures of Dissociated Neonatal Rat Cerebellum; experiment: Reversal of NMDA Induced Cell Death in cultures of dissociated neonatal rat cerebellum; assay type: cell-based; conditions: positive control
# Protocol: (§1) The cerebellum was aseptically dissociated from 6 or 7-day old rat pups and placed in a 15 ml sterile plastic conical tube containing 3 ml of Dulbecco's modified Eagle's medium (DMEM) with a high glucose concentration ([…]) and 2 mM (v/v) L-glutamine and an antibiotic antimitotic mixture. The cerebella were then dissociated after 20-25 passages through a sterile 13 gauge, 10 cm long stainless steel needle attached to a 5 ml syringe with an inserted 45 micrometer pore nylon sieve. The dissociated cells were centrifuged at 200 g for 5 minutes.
# Cells were plated at a density of 200/mm^2 on poly-L-lysine coated surfaces. […] The plated cells were covered with enriched medium and incubated at 37° C. in an atmosphere of 5% CO2 in air and 97% humidity. […] Each test compound was tested in duplicate. Toxic-dose response was determined for each compound over a range from 0.005-1000 micromole. Four groups were run in each set of experiments;
# I. Control, consisting of enriched media alone,
# II. N-methyl-D-aspartate (NMDA, 1 mM for 3 hours) as the cytotoxic challenge,
# III. Test compound plus NMDA, and
# IV. Positive control, spermine, spermidine or putrescine (0.01 micromoles) plus NMDA.
# Surviving cells in Culture are measured relative to control (100%) as described above. Percent protection is the Cell Survival for the test compound minus the NMDA effect. […] The Effective Protection was calculated as the percent of the Percent Protection (X) divided by the maximal protection value (e.g. X×100/70).
# [4] = in vitro; conditions: rat, cerebellum cell culture
# Protocol: as §1, with “minutes. […] Cell viability was determined by the tryptan blue exclusion test.” for “minutes.”
# Cells were plated at a density of 200/mm^2 on poly-L-lysine coated surfaces. Poly-L-lysine coated glass coverslips were prepared at least one hour in advance of plating by immersing sterile coverslips in sterile distilled water solution containing 15 microgram/ml poly-L-lysine, and washing in sterile water just prior. to use. […] After three days in culture, the media was replaced with media containing the desired test compound. Each test compound was tested in duplicate. Toxic-dose response was determined for each compound over a range from 0.005-1000 micromole. Four groups were run in each set of experiments;
# Nerve cell survival was evaluated by phase contrast microscopy and tryptan blue staining after 24 hours.
# Toxic dose-response curves were compiled using the protocol described above.
# [5] = tested on: pyramidal neurons throughout the CA1 layer of the anterior hippocampus; experiment: Global Brain Ischemia In Gerbils; assay type: in vivo, mongolian gerbils; conditions: Meriones unguiculatus, Pyramidal neuron, ip, 336 h, 10.0 mg/kg ip, 3 daily injections; 14 days post-ischemia; fraction of hippocampi protected; read-out: PERCENT PROTECTION
# Protocol: Male mongolian gerbils, aged 2.5-5 months, housed 4-8 in a cage, were supplied freely with food and water and maintained at 24° C. with a 12 hour day/night cycle.
# For surgery the animals were anesthetized with halothane (1.5% in 100% O2) and the common carotid arteries exposed bilaterally through a midline ventral neck incision. Each artery was clamped for 5 minutes with aneurysm clips to produce global brain ischemia. The anesthesia was discontinued upon clamping. After 5 minutes the clamps were removed and the wound closed with skin clips.
# For treatment, the test compound or vehicle was injected intra-peritoneally(ip) in a volume of 50 microlitres of solvent per 10 g body weight. The first injection was given two minutes after clamp removal, and thereafter daily for the next 2 post-operative days (total of 3 injections).
# Seven groups each of 4-8 animals were compared:
# I. Control; (sham- or unoperated and saline treated),
# II. Vehicle treated, unoperated (when solvent is other than saline),
# III. Ischemia--untreated or saline treated),
# IV. Ischemia--vehicle treated (when solvent is other than saline),
# V. Ischemia--Test compound treated, one sub-group per concentration tested,
# VI. Ischemia and pentobarbital (40 mg/kg) as positive control).
# Analysis of neuronal damage was performed 14 days post-ischemia by counting pyramidal neurons throughout the CA1 layer of the anterior hippocampus in […] thick (paraffin) coronal brain sections stained with hematoxylin and erosin.
# Percent Protection values represent the fraction of hippocampi protected from ischemia in a group of animals treated with the stated dose of compound.
# [6] = tested on: ischemia induced nerve cell death; conditions: gerbils; Gilad G et al.; cited from earlier work
Compound,voltage-sensitive calcium channel blocking [1],EAA antagonism / PCP site of NMDA receptor [2],"viability at 0.01 µM ([3]; Rattus norvegicus, 0.01 micromoles + NMDA (1 mM, 3 hours), 24 hours, read-out: SURVIVING CELL IN CULTURE (relative to control, 100%)) [%]","PERCENT PROTECTION ([3]; 0.01 micromoles + NMDA, cell survival minus the NMDA effect (30%)) [%]",CC50 at 24 h [4] [µM],responders at 10 mg/kg [5] [%],protecting against ischemia induced nerve cell death [6]
N=C(N)NCCCC(N)C(=O)NCCCNCCCN (stereo not shown) [SFTX-33],voltage-sensitive calcium channel blockers,EAA antagonists capable of binding at the PCP site on the NMDA receptor,,,,,
"NCCCCNCCCN [Spermidine, spermidine, reference compound]",,,78,48,2,42,activity

# Source: patent US5646188A, “Polyamine derivatives of 1-aminoindan” (priority 1995, dated 1997)
